Source: US12083227B2, “Solid pharmaceutical formulations for treating endometriosis, uterine fibroids, polycystic ovary syndrome or adenomyosis” (priority 2017, dated 2024)

What was measured:
[1] = system: endometriosis with associated pain in premenopausal women; assay: Study EM-I (placebo-controlled) and its extension; assay type: in vivo, human; details: Month 6 and Month 12
From the text: Each placebo-controlled study assessed the reduction in endometriosis-associated pain over 6 months of treatment. More than 75 percent of women who completed Study EM-I and EM-II enrolled in the extension studies for an additional 6 month treatment period. Subjects were followed for up to 12 months post-treatment. The co-primary efficacy endpoints were the proportion of responders for dysmenorrhea and pelvic pain not related to menses (also known as non-menstrual pelvic pain [NMPP]) at Month 3 compared to placebo. The primary analysis independently evaluated these endpoints using a daily diary that asked patients to assess their pain and its impact on their daily activities, over the previous 24 hours. […] Women were defined as responders if they experienced clinically meaningful reduction in dysmenorrhea and/or NMPP with no increased analgesic use for endometriosis associated pain. Dyspareunia was evaluated as a secondary endpoint using the Daily Endometriosis Pain Impact Scale. Endometrial biopsies were performed in subjects in Study EM-I and its extension at Month 6 and Month 12.

[2] = biological target: T1, organic anion transporting polypeptide (OATP)1B1 (Homo sapiens, UniProt Q9Y6L6); assay: substrate status: OATP1B1
T1 sequence (Q9Y6L6 1-691): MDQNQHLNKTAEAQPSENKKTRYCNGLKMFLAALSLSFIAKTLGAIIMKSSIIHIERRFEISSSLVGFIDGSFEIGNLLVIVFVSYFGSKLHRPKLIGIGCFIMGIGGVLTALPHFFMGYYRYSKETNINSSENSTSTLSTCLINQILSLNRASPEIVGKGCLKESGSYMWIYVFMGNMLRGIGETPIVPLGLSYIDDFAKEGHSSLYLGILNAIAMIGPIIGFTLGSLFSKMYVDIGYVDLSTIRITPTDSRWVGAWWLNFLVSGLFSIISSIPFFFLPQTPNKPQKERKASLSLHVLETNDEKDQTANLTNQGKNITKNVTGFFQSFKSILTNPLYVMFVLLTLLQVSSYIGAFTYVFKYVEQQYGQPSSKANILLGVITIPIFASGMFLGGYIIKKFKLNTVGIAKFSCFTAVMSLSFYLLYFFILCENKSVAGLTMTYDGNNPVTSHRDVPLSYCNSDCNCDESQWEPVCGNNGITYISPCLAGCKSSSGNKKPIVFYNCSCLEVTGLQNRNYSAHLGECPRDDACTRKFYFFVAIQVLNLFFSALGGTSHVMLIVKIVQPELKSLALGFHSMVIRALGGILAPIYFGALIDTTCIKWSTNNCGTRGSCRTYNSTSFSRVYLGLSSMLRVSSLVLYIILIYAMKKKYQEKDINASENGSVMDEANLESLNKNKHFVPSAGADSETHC
From the text: Elagolix is a substrate of CYP3A, P-gp, and organic anion transporting polypeptide (OATP)1B1. Clinically meaningful interactions are not expected when elagolix is co-administered with drugs that inhibit CYP3A or P-gp.

[3] = lactation study in rats (elagolix in diet through gestation and lactation); assay type: in vivo, rat; details: dams 400 mg/kg daily in diet
Method: Pregnant rats were given diet containing elagolix throughout the gestation and lactation periods to achieve a daily elagolix dose of 400 mg/kg. During nursing the dams and litters were divided into restricted feeding and non-restricted groups to determine whether elagolix was secreted in the mother's milk. […] In pups of the non-restricted feeding group, elagolix plasma concentrations were measurable and approximately 1% of the mother's plasma concentrations.

Structure (SMILES): COc1cccc(-c2c(C)n(Cc3c(F)cccc3C(F)(F)F)c(=O)n(C[C@H](NCCCC(=O)O)c3ccccc3)c2=O)c1F [elagolix, 4-((R)-2-[5-(2-fluoro-3-methoxy-phenyl)-3-(2-fluoro-6-trifluoromethyl-benzyl)-4-methyl-2,6-dioxo-3,6-dihydro-2H-pyrimidin-1-yl]-1-phenyl-ethylamino)-butyric acid]
- endometrial biopsy findings post-baseline (hyperplasia or cancer) [1]: no abnormal biopsy findings
- substrate of OATP1B1 [2]: substrate
- plasma concentrations in pups relative to the mother's plasma concentrations ([3]; rat pups of non-restricted feeding group): approximately 1%
- plasma concentrations in pups ([3]; rat pups of restricted feeding litters, post natal day 10 and 20): not measurable
